Patent US10730892B2, “Homoallylamines as formaldehyde-responsive triggers” (The Regents of the University of California, priority 2015, dated 2020)
Where two headings read alike, the source gives them in different places.

Experiments:
[1] = Experimental: Milli-Q water was used to prepare all aqueous solutions. All spectroscopic measurements were performed in 20 mM PBS, pH 7.4. Absorption spectra were recorded using a Varian Cary 50 spectrophotometer, and fluorescence spectra were recorded using a Photon Technology International Quanta Master 4 L-format scan spectrofluorometer equipped with an LPS-220B 75-W xenon lamp and power supply, A-1010B lamp housing with integrated igniter, switchable 814 photocounting/analog photomultiplier detection unit, and MD5020 motor driver. Samples for absorption and emission measurements were contained in 1-cm×1-cm quartz cuvettes (1.4-mL volume, Starna).
Quantum yield was determined using zinc phthalocyanine (ZnPc) as a standard according to a published method (Williams et al., Analyst. 1983, 108:1067-1071). For FAP-1 and ZnPc, the absorbance spectra were measured within an absorbance range below 0.1. The quantum yield was calculated according to the equation: ϕsample=ϕstandard (Gradsample/Gradstandard)(ηsample^2/ηstandard^2); where ϕ is the quantum yield, ϕstandard=0.34 in 1% pyridine/toluene (Bishop et al., J. Photochem. Photobiol. 1995, 90:39-44), Grad is the slope of the plot of absorbance versus integrated emission intensity, and η is the refractive index of the solvent.

[2] = remark: listed apart in the source
Experimental: 999 μL of a 10.01 μM solution of FAP-1 in 20 mM PBS (pH 7.4) was prepared by diluting a 10 mM dimethylsulfoxide (DMSO) stock solution of FAP-1 into pre-warmed PBS (37° C.) in a 1-cm×1-cm quartz cuvette. 1 μL of 100 mM stock solution of FA (freshly prepared by diluting commercial 37 wt. % in H2O FA solution) was added (for a final concentration of 100 μM), and the mixture was mixed by vigorous pipetting for 5 s, followed by acquisition of the t=0 spectrum. Emission spectra (λex=645 nm, λem=655-750 nm) were collected at 0, 20, 45, 60, 90, and 120 min (see FIG. 24A). Temperature was maintained at 37° C. throughout the experiment by immersing the cuvette in a heated water bath between measurements.
999 μL of a 10.01 μM solution of FAP-1 in 20 mM PBS (pH 7.4) was prepared by diluting a 10 mM DMSO stock solution of FAP-1 into pre-warmed PBS (37° C.) in a 1-cm×1-cm quartz cuvette. 1 μL of a FA stock solution (either 5 mM or 1 mM, freshly prepared by diluting commercial 37 wt. % FA solution with Milli-Q water) or 1 μL of PBS was added (for a final concentration of 5 μM, 1 μM, or 0 μM FA), and the mixture was mixed by vigorous pipetting for 5 s and placed in a 37° C. water bath. Emission spectra were obtained after 120 min. Statistical analyses for multiple comparisons were performed using one-way ANOVA with the Bonferroni correction in the statistical analysis software, R.

[3] = test system: HEK293T cells; conditions: 10 μM FAP-1 30 min, FA 200 μM to 1 mM
Experimental: Statistical analyses for multiple comparisons were performed using one-way ANOVA with the Bonferroni correction in the statistical analysis software, R.

[4] = remark: listed apart in the source
Experimental: (§1) 999 μL of a 10.01 μM solution of FAP-1 (for 4-hydroxynonenal cuvette: 998.4 μL of a 10.02 μM solution of FAP-1; for glutathione cuvette: 950 μL of a 10.53 μM solution of FAP-1) in 20 mM PBS (pH 7.4) was prepared by diluting a 10 mM DMSO stock solution of FAP-1 into pre-warmed PBS (37° C.) in a 1-cm×1-cm quartz cuvette. The analyte of interest was added to the cuvette to bring the concentration of analyte to 100 μM (unless otherwise specified) and the concentration of FAP-1 to 10 μM, followed by mixing by vigorous pipetting for 5 seconds, and a t=0 spectrum was acquired. The cuvette was placed in a 37° C. water bath. Emission spectra were recorded by quickly removing the cuvette from the water bath, obtaining the spectrum, and returning the cuvette to the bath. Spectra were taken at t=0, 20, 45, 60, 90, and 120 min (see FIG. 24B).
1 μL of 100 mM stock solution of methylglyoxal in Milli-Q water (freshly prepared by diluting 7.7 μL of neat methylglyoxal to 500 μL with Milli-Q water) was added to 999 μL of a 10.01 μM solution of FAP-1 in PBS.

[5] = test system: HEK293T cells
Experimental: FIG. 29 depicts a photostability study with FAP-1. A field of HEK293T cells loaded with 10 μM FAP-1 in BSS at 37° C. was irradiated using 50% laser power (dashed line) or 6% laser power (solid line) with a pinhole of 1 airy unit for 100 scans. Emission was normalized to the first scan for each field. Error bars represent standard deviation, n=5.

[6] = remark: listed apart in the source
Experimental: as §1

[7] = remark: listed apart in the source
Experimental: A modified version of the shake method was used to determine the partition coefficient or log Doct/wat value for FAP-1 (Rothbard et al., J. Am. Chem. Soc. 2004, 126:9506-9507). Briefly, 1-octanol-saturated PBS (248 μL), PBS-saturated 1-octanol (248 μL), and 1 mM solution of FAP-1 in DMSO (5 μL) were added to a 0.6-mL microcentrifuge tube. The dye was partitioned between the layers via vortexing for 30 s. The microcentrifuge tube was centrifuged on a bench-top minifuge at 4 k rpm for 4 minutes to separate the layers. A portion of the 1-octanol layer (200 μL) was transferred to a 96-well plate, and the fluorescence emission from 665-700 nm was measured (excitation at 645 nm) using a Synergy Mx multimode microplate reader (BioTek Instruments, Inc.) equipped with fluorescence module. The concentration of dye in the 1-octanol layer was determined by comparison with a standard curve constructed from six data points.

[8] = pH-Fluorescence profile of compound 4; format: physicochemical; conditions: pH 2.0 to 10.4, 25° C.
Experimental: FIG. 7 depicts the pH-Fluorescence profile of compound 4 (as denoted in FIG. 3). Fluorescence intensity was measured at 25° C. for the following pH values and indicated buffers: 50 mM Glycine (2.0, 2.4, 2.7, 3.1, 3.5), 50 mM sodium acetate (4.0, 4.4, 4.8, 5.2, 5.6), 50 mM MES (5.6, 6.0, 6.4, 6.8), 50 mM HEPES (6.8, 7.2, 7.4, 7.8, 8.2), 50 mM Tris (8.2, 8.6, 9.0, 9.5) and 50 mM glycine (9.5, 9.9, 10.4).

[9] = Fluorescence properties of compounds 3, 4, 5 and FP1 (Table 1); format: physicochemical
Excerpt: Such red-shifted fluorophores are desirable because of low autofluorescence, minimal phototoxicity, and negligible interference from biomolecules when employed in live cell imaging. […] In the presence of FA, a reversible condensation event yielded an iminium intermediate which can undergo a charge-promoted [3,3]-sigmatropic rearrangement-hydrolysis sequence to expel the aryl nitro group and afford a highly fluorescent indole-3-carboxaldehyde product (ΦF=0.11) (Table 1). Of note, the aldehyde is strategically positioned at C3 such that after the reaction cascade, the N1 lone pair electrons can delocalize into the π-system rather than quench fluorescence via an acceptor-excited PeT (a-PeT) pathway. In this regard, silicon rhodol 3, without the carboxaldehyde, is non-fluorescent (Table 1).

[10] = test system: HEK293TN cells; conditions: 3 hrs
Experimental: Prior to imaging, cells were allowed to recover in FA-free buffer for 30 min. […] Because FA is a powerful fixative, cell viability assays were performed to determine the cytotoxicity of FA under experimental conditions. A dye exclusion protocol was employed, utilizing trypan blue to selectively stain and distinguish dead cells from those that were viable. […] To further verify that the cell populations under investigation were indeed alive, DAPI, a cell permeable nuclear and chromosome counterstain, was employed to identify intact nuclei (FIG. 16).

[11] = test system: HEK293T cells; conditions: FA in BSS, 37° C., 30 min
[12] = test system: NS1 cells
[13] = test system: MCF7 cells; assay: Confocal microscopy of FAP-1 in LSD1 inhibitor-treated MCF7 cells (endogenous FA); format: cell-based, human; conditions: 10 μM FAP-1 60 min
Excerpt: Scale bar represents 50 μm in all images. […] Scale bar represents 50 μm in all images. […] Error bars denote SEM, n=6. *P<0.005

[14] = in 1% pyridine/toluene; cited from earlier work

C=CCC1NC2(c3ccc(C(=O)O)cc31)c1ccc(N(C)C)cc1[Si](C)(C)c1cc(N(C)C)ccc12 (stereo not drawn) [FAP-1]
ε650 ([1]; 20 mM PBS, pH 7.4): 190 M^1 cm^−1 | φfl (quantum yield) ([1]; 20 mM PBS, pH 7.4, ZnPc as standard): 0.36 | λem ([1]; turn-on response to FA): 662 nm | λmax ([1]; turn-on response to FA): 645 nm | turn-on response at saturation ([2]; 10 μM FAP-1, 100 μM FA, extended incubation times): ca. 45 fold | fold fluorescence turn-on response ([2]; 10 μM FAP-1, 100 μM FA, pH 7.4, 37° C., within 1 h): ca. 8 fold | in vitro detection limit for FA ([2]; 10 μM FAP-1, 2-hour cutoff): 5 µM | fluorescence turn-on in FA-treated cells over control cells [3]: significant and dose-dependent fluorescence turn-on | fluorescence response ([4]; 10 μM methylglyoxal): not responsive | fluorescence response ([4]; 100 μM methylglyoxal (super-physiological)): small response | photostability ([5]; 50% laser power): slight photobleaching | photostability ([5]; 100 scans with 6% laser power): consistent fluorescence intensity | selectivity for FA over competing RCS and carbonyl-containing molecules ([6]; 10 μM FAP-1, 100 μM analyte (glucose 1 mM), 37° C.): good selectivity | change in fluorescence ([6]; 100 μM H2O2): no change in fluorescence | change in fluorescence ([6]; 5 mM glutathione): no change in fluorescence | log Doct/wat ([7]; 1-octanol / PBS, mean±standard deviation, triplicate): 0.53±0.01 | solubility in aqueous solution ([7]; aqueous solution buffered to pH 7.4): good solubility

Cc1cc2c(cc1C1=C3C=CC(=O)C=C3[Si](C)(C)c3c1cc1c4c3CCCN4CCC1)c(C=O)cn2C [Compound 4, 5-(14,14-dimethyl-12-oxo-2,3,6,7,12,14-hexahydro-1H,5H-benzo [5,6]silino [2,3-f]pyrido[3,2,1-ij]quinolin-9-yl)-1,6-dimethyl-1H-indole-3-carbaldehyde]
pH-fluorescence profile [8]: high fluorescence intensity was maintained under physiological conditions | Φ (quantum efficiency, ΦF) [9]: 0.13 | ε [9]: 106000 M⁻¹ cm⁻¹ | λabs [9]: 633 nm | λem [9]: 649 nm | Φ (quantum efficiency, ΦF) ([9]; listed as indole-3-carboxaldehyde product): 0.11

C=O [FA, Formaldehyde]
dead cells (trypan blue) ([10]; 1 mM FA): 5% | cells no longer viable (trypan blue) ([10]; 5 mM FA): ~35% | cell viability (propidium iodide assay) [11]: no difference between FA-treated and untreated cells | loss in viability (trypan blue) ([12]; NS1, 2.5 mM FA, 3 hrs): ca. 12% | cell death (trypan blue) ([12]; NS1, 5 mM FA): considerable cell death

N[C@@H]1C[C@H]1c1ccccc1 (racemic) [TCP, tranylcypromine]
decrease in FAP-1 fluorescence signal compared to control cells ([13]; MCF7, 20 μM inhibitor for 20 h): ca. 20%

c1ccc([C@@H]2C[C@H]2NC2CCNCC2)cc1 [GSK-LSD1]
effect on FAP-1 fluorescence ([13]; MCF7, 1 μM inhibitor for 20 h): attenuated FAP-1 fluorescence

[Zn+2].c1ccc2c(c1)-c1nc-2nc2[n-]c(nc3nc([n-]c4nc(n1)-c1ccccc1-4)-c1ccccc1-3)c1ccccc21 [ZnPc, zinc phthalocyanine]
ϕstandard (quantum yield) [14]: 0.34

Cc1cc2c(ccn2C)cc1C1=C2C=CC(=O)C=C2[Si](C)(C)c2c1cc1c3c2CCCN3CCC1 [Compound 3, 9-(1,6-dimethyl-1H-indol-5-yl)-14,14-dimethyl-2,3,5,6,7,14-hexahydro-1H,12H-benzo[5,6]silino[2,3-f]pyrido[3,2,1-ij]quinolin-12-one]
ε [9]: 86000 M⁻¹ cm⁻¹ | λabs [9]: 633 nm | λem [9]: 649 nm | fluorescence (in words) ([9]; without the carboxaldehyde): non-fluorescent

C=CCC(N)c1cn(C)c2cc(C)c(C3=C4C=CC(=O)C=C4[Si](C)(C)c4c3cc3c5c4CCCN5CCC3)cc12 (stereo not drawn) [Compound 5, 9-(3-(1-aminobut-3-en-1-yl)-1,6-dimethyl-1H-indol-5-yl)-14,14-dimethyl-2,3,5,6,7,14-hexahydro-1H,12H-benzo[5,6]silino[2,3-f]pyrido[3,2,1-ij]quinolin-12-one]
Φ (quantum efficiency, ΦF) [9]: 0.02 | ε [9]: 100000 M⁻¹ cm⁻¹ | λabs [9]: 633 nm | λem [9]: 649 nm
